The target of the assay is Coagulation factor VII (Homo sapiens) (UniProt P08709). The assay is described as follows: Inhibition of human FVIIa.

Bounds are passed on as bounds.

Chain of Coagulation factor VII (Homo sapiens) (P08709 whole entry, looked up): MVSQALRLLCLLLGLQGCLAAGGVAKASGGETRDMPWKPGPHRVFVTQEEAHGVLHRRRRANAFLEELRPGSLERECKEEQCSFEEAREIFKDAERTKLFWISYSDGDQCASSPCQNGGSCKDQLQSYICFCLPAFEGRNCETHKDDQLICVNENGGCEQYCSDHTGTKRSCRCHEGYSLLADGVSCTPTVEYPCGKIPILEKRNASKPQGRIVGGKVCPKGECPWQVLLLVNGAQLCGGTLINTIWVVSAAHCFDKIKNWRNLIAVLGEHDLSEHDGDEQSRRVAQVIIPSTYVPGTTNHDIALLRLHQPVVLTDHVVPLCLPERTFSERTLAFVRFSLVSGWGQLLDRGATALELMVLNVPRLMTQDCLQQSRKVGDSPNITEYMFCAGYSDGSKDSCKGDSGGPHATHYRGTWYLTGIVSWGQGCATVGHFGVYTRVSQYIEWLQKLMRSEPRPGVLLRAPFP

The Ki is the equilibrium dissociation constant of an inhibitor or competing ligand from its target. A higher Ki goes with weaker binding. In turn, `N=C(N)c1ccc(CNC(=O)[C@@H]2Cc3ccc(cc3)NC(=O)CCN3CCN(CCC(=O)Nc4ccc(cc4)C[C@@H](NS(=O)(=O)Cc4ccccc4)C(=O)N2)CC3)cc1` had a Ki of more than 50 µM.
For `N=C(N)c1ccc(CNC(=O)[C@@H]2Cc3ccc(cc3)NC(=O)CN3CCN(CC3)CC(=O)Nc3ccc(cc3)C[C@@H](NS(=O)(=O)Cc3ccccc3)C(=O)N2)cc1`, the inhibition constant Ki was more than 30 µM.
